Assay results from PubChem BioAssay AID1259407 (Chemical Carcinogenesis Research Information System (CCRIS), 2018).
Activity calls are given as the source filed them. The rule behind the calls is not given here.

Tested on: CCRIS mutagenicity, Ames/micronucleus/aberration tests
Assay: CCRIS mutagenicity studies
[1] = Test System: AMES SALMONELLA TYPHIMURIUM, Strain/Indicator: TA1535, Metabolic Activation: NONE, Method: PREINCUBATION
[2] = Test System: AMES SALMONELLA TYPHIMURIUM, Strain/Indicator: TA98, Metabolic Activation: NONE, Method: PREINCUBATION
[3] = Test System: AMES SALMONELLA TYPHIMURIUM, Strain/Indicator: TA100, Metabolic Activation: NONE, Method: PREINCUBATION
[4] = Test System: AMES SALMONELLA TYPHIMURIUM, Strain/Indicator: TA1537, Metabolic Activation: NONE, Method: PREINCUBATION
[5] = Test System: AMES SALMONELLA TYPHIMURIUM, Strain/Indicator: TA100, Metabolic Activation: NONE, Method: STANDARD PLATE

Measured: mutagenic call

C=CCCl
active: End Point: IN VITRO CHROMOSOMAL ABERRATIONS, Test System: CHL CELLS, Metabolic Activation: RAT, LIVER, S-9, SODIUM PHENOBARBITAL AND 5,6-BENZOFLAVONE active; positive (structural changes); authors report equivocal results for ploidy chang | Test System: AMES SALMONELLA TYPHIMURIUM, Strain/Indicator: TA100, Metabolic Activation: NONE, Method: DESICCATOR active; positive | Test System: AMES SALMONELLA TYPHIMURIUM, Strain/Indicator: TA100, Metabolic Activation: RAT, LIVER, S-9, AROCLOR 1254 (4 OR 12 MG/ML PROTEIN), Method: PREINCUBATION (120 OR 180 MIN) active; positive | Test System: AMES SALMONELLA TYPHIMURIUM, Strain/Indicator: TA100, Metabolic Activation: RAT, LIVER, S-9, AROCLOR 1254, Method: DESICCATOR active; positive | Test System: AMES SALMONELLA TYPHIMURIUM, Strain/Indicator: TA1535, Metabolic Activation: NONE, Method: DESICCATOR active; positive | [1] active; positive | Test System: AMES SALMONELLA TYPHIMURIUM, Strain/Indicator: TA1535, Metabolic Activation: RAT, LIVER, S-9, AROCLOR 1254, Method: DESICCATOR active; positive | Test System: AMES SALMONELLA TYPHIMURIUM, Strain/Indicator: TA1535, Metabolic Activation: RAT, LIVER, S-9, AROCLOR 1254, Method: PREINCUBATION active; positive | Test System: Ames Salmonella typhimurium, Strain/Indicator: YG7108, Metabolic Activation: Rat, Liver, S-9, Phenobarbital/beta-naphthoflavone, Method: Standard plate active; positive | Test System: Ames Salmonella typhimurium, Strain/Indicator: YG7108pin3ERb5, Metabolic Activation: None, Method: Standard plate active; positive
inactive: Test System: AMES SALMONELLA TYPHIMURIUM, Strain/Indicator: TA100, Metabolic Activation: NONE, Method: PREINCUBATION (20-180 MIN) inactive; negative | Test System: AMES SALMONELLA TYPHIMURIUM, Strain/Indicator: TA100, Metabolic Activation: RAT, LIVER, S-9, AROCLOR 1254 (4 OR 12 MG/ML PROTEIN), Method: PREINCUBATION (20 OR 60 MIN) inactive; negative | Test System: AMES SALMONELLA TYPHIMURIUM, Strain/Indicator: TA100, Metabolic Activation: RAT, LIVER, S-9, AROCLOR 1254, SERUM ALBUMIN (4 MG/ML) (8 MG/ML PROTEIN), Method: PREINCUBATION (120 MIN) inactive; negative | Test System: AMES SALMONELLA TYPHIMURIUM, Strain/Indicator: TA102, Metabolic Activation: S-9, Method: STANDARD PLATE inactive; negative | Test System: AMES SALMONELLA TYPHIMURIUM, Strain/Indicator: TA2638, Metabolic Activation: S-9, Method: STANDARD PLATE inactive; negative | Test System: Ames Salmonella typhimurium, Strain/Indicator: TA98, Metabolic Activation: Rat, Liver, S9, Sodium phenobarbital and 5,6-benzoflavone (10%), Method: Preincubation inactive; negative | Test System: Ames Salmonella typhimurium, Strain/Indicator: TA100, Metabolic Activation: Rat, Liver, S9, Sodium phenobarbital and 5,6-benzoflavone (10%), Method: Preincubation inactive; negative | Test System: Ames Salmonella typhimurium, Strain/Indicator: TA1537, Metabolic Activation: None, Method: Preincubation inactive; negative | Test System: Ames Salmonella typhimurium, Strain/Indicator: TA1537, Metabolic Activation: Rat, Liver, S9, Sodium phenobarbital and 5,6-benzoflavone (10%), Method: Preincubation inactive; negative | Test System: Ames Salmonella typhimurium, Strain/Indicator: YG7108, Metabolic Activation: None, Method: Standard plate inactive; positive (negative when allyl chloride dissolved in water) | Test System: E. COLI, Strain/Indicator: WP2 (PKM101), Metabolic Activation: S-9, Method: STANDARD PLATE inactive; negative | Test System: E. COLI, Strain/Indicator: WP2 UVRA (PKM101), Metabolic Activation: S-9, Method: STANDARD PLATE inactive; negative

O.O.O.O.O.O.[Cl-].[Cl-].[Ni+2]
inactive: End Point: In vitro chromosomal aberrations, Test System: Chinese hamster V79 lung cells, Metabolic Activation: None inactive; negative | [2] inactive; negative | Test System: AMES SALMONELLA TYPHIMURIUM, Strain/Indicator: TA98, Metabolic Activation: RAT LIVER S-9, PHENOBARBITAL AND BETA-NAPHTHOFLAVONE, Method: PREINCUBATION inactive; negative | [3] inactive; negative | Test System: AMES SALMONELLA TYPHIMURIUM, Strain/Indicator: TA100, Metabolic Activation: RAT LIVER S-9, PHENOBARBITAL AND BETA-NAPHTHOFLAVONE, Method: PREINCUBATION inactive; negative | [1] inactive; negative | Test System: AMES SALMONELLA TYPHIMURIUM, Strain/Indicator: TA1535, Metabolic Activation: RAT LIVER S-9, PHENOBARBITAL AND BETA-NAPHTHOFLAVONE, Method: PREINCUBATION inactive; negative | [4] inactive; negative | Test System: AMES SALMONELLA TYPHIMURIUM, Strain/Indicator: TA1537, Metabolic Activation: RAT LIVER S-9, PHENOBARBITAL AND BETA-NAPHTHOFLAVONE, Method: PREINCUBATION inactive; negative | Test System: AMES SALMONELLA TYPHIMURIUM, Strain/Indicator: TA1538, Metabolic Activation: NONE, Method: PREINCUBATION inactive; negative | Test System: AMES SALMONELLA TYPHIMURIUM, Strain/Indicator: TA1538, Metabolic Activation: RAT LIVER S-9, PHENOBARBITAL AND BETA-NAPHTHOFLAVONE, Method: PREINCUBATION inactive; negative | Test System: E.COLI, Strain/Indicator: WP2UVRA, Metabolic Activation: NONE, Method: PREINCUBATION inactive; negative | Test System: E.COLI, Strain/Indicator: WP2UVRA, Metabolic Activation: RAT LIVER S-9, PHENOBARBITAL AND BETA-NAPHTHOFLAVONE, Method: PREINCUBATION inactive; negative
active: Test System: CHINESE HAMSTER V-79, Strain/Indicator: V-79/(HGPRT), Metabolic Activation: NONE active; positive

NC(=O)NCC(=O)O
inactive: Test System: AMES SALMONELLA TYPHIMURIUM, Strain/Indicator: TA97, Metabolic Activation: NONE, Method: STANDARD PLATE inactive; negative | Test System: AMES SALMONELLA TYPHIMURIUM, Strain/Indicator: TA97, Metabolic Activation: RAT, LIVER, S-9, AROCLOR 1254, Method: STANDARD PLATE inactive; negative | Test System: AMES SALMONELLA TYPHIMURIUM, Strain/Indicator: TA98, Metabolic Activation: NONE, Method: STANDARD PLATE inactive; negative | Test System: AMES SALMONELLA TYPHIMURIUM, Strain/Indicator: TA98, Metabolic Activation: RAT, LIVER, S-9, AROCLOR 1254, Method: STANDARD PLATE inactive; negative | [5] inactive; negative | Test System: AMES SALMONELLA TYPHIMURIUM, Strain/Indicator: TA100, Metabolic Activation: RAT, LIVER, S-9, AROCLOR 1254, Method: STANDARD PLATE inactive; negative | Test System: AMES SALMONELLA TYPHIMURIUM, Strain/Indicator: TA102, Metabolic Activation: NONE, Method: STANDARD PLATE inactive; negative | Test System: AMES SALMONELLA TYPHIMURIUM, Strain/Indicator: TA102, Metabolic Activation: RAT, LIVER, S-9, AROCLOR 1254, Method: STANDARD PLATE inactive; negative

CC(C)(C)OOC(=O)c1ccccc1
inactive: [3] inactive; negative | Test System: AMES SALMONELLA TYPHIMURIUM, Strain/Indicator: TA100, Metabolic Activation: RAT, LIVER, S-9, AROCLOR 1254 (10%), Method: PREINCUBATION inactive; negative | Test System: AMES SALMONELLA TYPHIMURIUM, Strain/Indicator: TA1535, Metabolic Activation: HAMSTER, LIVER, S-9, AROCLOR 1254 (10%), Method: PREINCUBATION inactive; negative | [1] inactive; negative | Test System: AMES SALMONELLA TYPHIMURIUM, Strain/Indicator: TA1535, Metabolic Activation: RAT, LIVER, S-9, AROCLOR 1254 (10%), Method: PREINCUBATION inactive; negative
active: Test System: AMES SALMONELLA TYPHIMURIUM, Strain/Indicator: TA98, Metabolic Activation: HAMSTER, LIVER, S-9, AROCLOR 1254 (10%), Method: PREINCUBATION active; positive | [2] active; positive | Test System: AMES SALMONELLA TYPHIMURIUM, Strain/Indicator: TA98, Metabolic Activation: RAT, LIVER, S-9, AROCLOR 1254 (10%), Method: PREINCUBATION active; positive | Test System: AMES SALMONELLA TYPHIMURIUM, Strain/Indicator: TA100, Metabolic Activation: HAMSTER, LIVER, S-9, AROCLOR 1254 (10%), Method: PREINCUBATION active; positive | Test System: AMES SALMONELLA TYPHIMURIUM, Strain/Indicator: TA1537, Metabolic Activation: HAMSTER, LIVER, S-9, AROCLOR 1254 (10%), Method: PREINCUBATION active; positive | [4] active; positive | Test System: AMES SALMONELLA TYPHIMURIUM, Strain/Indicator: TA1537, Metabolic Activation: RAT, LIVER, S-9, AROCLOR 1254 (10%), Method: PREINCUBATION active; positive

CC(=C\C1=CCOC1=O)/C=C(C)/C=C/C=C(\C)C(=O)[C@]12O[C@H]1[C@@](O)(CCO)NC2=O
active: [3] active; positive

COc1cccc(CN2[C@@H]3c4ccccc4-c4ccccc4[C@@H]32)c1 (stereo partly drawn)
active: [5] active; positive
